From ChEMBL document CHEMBL1150976, “The selectivity of protein kinase inhibitors: a further update” (Biochem J, 2007)

What was measured:
[1] = molecular target: Serine/threonine-protein kinase PLK1 (Homo sapiens, UniProt P53350); test: Percentage PLK1 activity remaining in the presence of 0.01uM inhibitor
[2] = molecular target: T1, Mitogen-activated protein kinase 13 (Homo sapiens) (UniProt O15264); test: Percentage p38delta activity remaining in the presence of 0.01uM inhibitor
T1 sequence (whole entry): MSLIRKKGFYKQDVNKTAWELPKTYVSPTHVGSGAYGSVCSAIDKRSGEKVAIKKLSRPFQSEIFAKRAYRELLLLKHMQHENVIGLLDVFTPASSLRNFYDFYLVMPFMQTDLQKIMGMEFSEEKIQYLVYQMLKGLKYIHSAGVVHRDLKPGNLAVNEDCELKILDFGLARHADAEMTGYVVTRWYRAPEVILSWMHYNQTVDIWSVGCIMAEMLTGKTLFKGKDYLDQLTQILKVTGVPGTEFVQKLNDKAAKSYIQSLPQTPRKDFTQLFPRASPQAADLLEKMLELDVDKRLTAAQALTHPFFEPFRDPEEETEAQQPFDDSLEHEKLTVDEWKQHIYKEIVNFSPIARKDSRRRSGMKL

[3] = species on record: Rattus norvegicus; test: Percentage AMPK activity remaining in the presence of 0.01uM inhibitor
[4] = molecular target: T2, Aurora kinase C (Homo sapiens) (UniProt Q9UQB9); test: Percentage Aurora C activity remaining in the presence of 0.01uM inhibitor
T2 sequence (whole entry): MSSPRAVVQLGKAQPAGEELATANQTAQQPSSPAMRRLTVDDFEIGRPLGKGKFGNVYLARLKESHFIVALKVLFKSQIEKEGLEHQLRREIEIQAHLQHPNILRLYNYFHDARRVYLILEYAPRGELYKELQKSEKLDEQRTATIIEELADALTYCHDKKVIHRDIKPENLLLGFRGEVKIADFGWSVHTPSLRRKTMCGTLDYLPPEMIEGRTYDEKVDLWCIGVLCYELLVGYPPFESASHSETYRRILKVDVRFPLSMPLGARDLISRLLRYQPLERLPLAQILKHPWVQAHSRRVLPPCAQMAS

[5] = molecular target: Calcium/calmodulin-dependent protein kinase type 1 (Homo sapiens) (UniProt Q14012); test: Percentage CaMK1 activity remaining in the presence of 0.01uM inhibitor
[6] = molecular target: Serine/threonine-protein kinase pim-3 (Homo sapiens, UniProt Q86V86); test: Percentage PIM3 activity remaining in the presence of 0.01uM inhibitor
[7] = molecular target: T3, Serine/threonine-protein kinase Sgk1 (Homo sapiens) (UniProt O00141); test: Percentage SGK1 activity remaining in the presence of 0.1uM inhibitor
T3 sequence (whole entry): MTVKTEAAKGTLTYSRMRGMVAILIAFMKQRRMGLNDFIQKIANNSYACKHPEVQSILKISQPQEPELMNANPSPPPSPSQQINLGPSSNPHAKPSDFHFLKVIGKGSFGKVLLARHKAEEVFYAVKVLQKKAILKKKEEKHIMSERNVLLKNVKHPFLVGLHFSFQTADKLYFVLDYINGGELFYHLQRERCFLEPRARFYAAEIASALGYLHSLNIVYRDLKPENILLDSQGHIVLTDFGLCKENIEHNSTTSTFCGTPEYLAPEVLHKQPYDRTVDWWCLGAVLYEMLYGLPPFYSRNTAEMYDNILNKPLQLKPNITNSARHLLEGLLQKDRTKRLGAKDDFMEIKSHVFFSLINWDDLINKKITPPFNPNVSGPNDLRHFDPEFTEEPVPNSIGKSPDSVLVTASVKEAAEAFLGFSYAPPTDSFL

[8] = species on record: Homo sapiens; test: Percentage PHK activity remaining in the presence of 0.01uM inhibitor
[9] = molecular target: T4, Dual specificity tyrosine-phosphorylation-regulated kinase 3 (Homo sapiens) (UniProt O43781); test: Percentage DYRK3 activity remaining in the presence of 0.01uM inhibitor
T4 sequence (whole entry): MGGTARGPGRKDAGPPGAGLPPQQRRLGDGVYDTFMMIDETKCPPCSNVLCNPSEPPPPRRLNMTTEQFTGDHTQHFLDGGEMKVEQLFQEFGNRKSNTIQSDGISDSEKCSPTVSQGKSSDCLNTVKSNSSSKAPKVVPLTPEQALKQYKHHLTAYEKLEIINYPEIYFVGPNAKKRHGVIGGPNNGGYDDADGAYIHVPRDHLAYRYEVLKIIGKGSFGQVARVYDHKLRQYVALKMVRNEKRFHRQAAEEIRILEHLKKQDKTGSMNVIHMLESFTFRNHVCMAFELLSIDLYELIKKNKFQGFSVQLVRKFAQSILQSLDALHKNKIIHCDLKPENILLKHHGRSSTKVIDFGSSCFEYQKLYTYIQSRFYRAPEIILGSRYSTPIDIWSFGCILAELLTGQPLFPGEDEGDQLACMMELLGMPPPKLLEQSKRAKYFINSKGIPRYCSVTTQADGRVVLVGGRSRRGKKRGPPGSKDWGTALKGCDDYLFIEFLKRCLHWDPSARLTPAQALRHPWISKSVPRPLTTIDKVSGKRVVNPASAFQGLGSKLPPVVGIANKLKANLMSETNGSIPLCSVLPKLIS

[10] = molecular target: Rho-associated protein kinase 2 (Homo sapiens) (UniProt O75116); test: Percentage ROCK2 activity remaining in the presence of 0.01uM inhibitor
[11] = molecular target: Serine/threonine-protein kinase N2 (Homo sapiens) (UniProt Q16513); test: Percentage PRK2 activity remaining in the presence of 0.01uM inhibitor
[12] = molecular target: Calcium/calmodulin-dependent protein kinase type 1 (Homo sapiens) (UniProt Q14012); test: Percentage CaMK1 activity remaining in the presence of 0.1uM inhibitor
[13] = molecular target: Protein kinase C alpha type (Homo sapiens) (UniProt P17252); test: Percentage PKCalpha activity remaining in the presence of 0.01uM inhibitor
[14] = molecular target: Serine/threonine-protein kinase PAK 4 (Homo sapiens, UniProt O96013); test: Percentage PAK4 activity remaining in the presence of 0.01uM inhibitor
[15] = molecular target: Serine/threonine-protein kinase Nek7 (Homo sapiens) (UniProt Q8TDX7); test: Percentage NEK7 activity remaining in the presence of 0.01uM inhibitor
[16] = molecular target: Proto-oncogene tyrosine-protein kinase Src (Gallus gallus) (UniProt P00523); test: Percentage Src activity remaining in the presence of 0.01uM inhibitor
[17] = molecular target: Serine/threonine-protein kinase pim-2 (Homo sapiens, UniProt Q9P1W9); test: Percentage PIM2 activity remaining in the presence of 0.01uM inhibitor
Sequence of Serine/threonine-protein kinase pim-2 (Q9P1W9 whole entry, looked up): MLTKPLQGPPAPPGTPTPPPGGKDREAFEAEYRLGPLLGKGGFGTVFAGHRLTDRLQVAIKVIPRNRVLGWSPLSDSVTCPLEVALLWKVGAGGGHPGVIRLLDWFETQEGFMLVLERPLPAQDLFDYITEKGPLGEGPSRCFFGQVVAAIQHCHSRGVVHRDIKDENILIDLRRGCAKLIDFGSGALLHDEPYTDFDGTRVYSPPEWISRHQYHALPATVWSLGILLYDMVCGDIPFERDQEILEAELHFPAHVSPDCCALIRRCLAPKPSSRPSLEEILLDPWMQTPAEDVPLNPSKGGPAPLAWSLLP

Sequence of Serine/threonine-protein kinase Nek7 (Homo sapiens) (Q8TDX7 whole entry, looked up): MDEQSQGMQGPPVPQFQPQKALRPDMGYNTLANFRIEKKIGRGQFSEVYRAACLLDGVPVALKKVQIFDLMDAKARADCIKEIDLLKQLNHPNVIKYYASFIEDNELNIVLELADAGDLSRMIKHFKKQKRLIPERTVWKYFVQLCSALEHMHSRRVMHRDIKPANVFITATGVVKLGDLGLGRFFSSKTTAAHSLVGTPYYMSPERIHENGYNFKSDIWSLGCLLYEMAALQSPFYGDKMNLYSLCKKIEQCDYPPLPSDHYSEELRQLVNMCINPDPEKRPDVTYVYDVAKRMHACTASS
Sequence of Rho-associated protein kinase 2 (Homo sapiens) (O75116 whole entry, looked up): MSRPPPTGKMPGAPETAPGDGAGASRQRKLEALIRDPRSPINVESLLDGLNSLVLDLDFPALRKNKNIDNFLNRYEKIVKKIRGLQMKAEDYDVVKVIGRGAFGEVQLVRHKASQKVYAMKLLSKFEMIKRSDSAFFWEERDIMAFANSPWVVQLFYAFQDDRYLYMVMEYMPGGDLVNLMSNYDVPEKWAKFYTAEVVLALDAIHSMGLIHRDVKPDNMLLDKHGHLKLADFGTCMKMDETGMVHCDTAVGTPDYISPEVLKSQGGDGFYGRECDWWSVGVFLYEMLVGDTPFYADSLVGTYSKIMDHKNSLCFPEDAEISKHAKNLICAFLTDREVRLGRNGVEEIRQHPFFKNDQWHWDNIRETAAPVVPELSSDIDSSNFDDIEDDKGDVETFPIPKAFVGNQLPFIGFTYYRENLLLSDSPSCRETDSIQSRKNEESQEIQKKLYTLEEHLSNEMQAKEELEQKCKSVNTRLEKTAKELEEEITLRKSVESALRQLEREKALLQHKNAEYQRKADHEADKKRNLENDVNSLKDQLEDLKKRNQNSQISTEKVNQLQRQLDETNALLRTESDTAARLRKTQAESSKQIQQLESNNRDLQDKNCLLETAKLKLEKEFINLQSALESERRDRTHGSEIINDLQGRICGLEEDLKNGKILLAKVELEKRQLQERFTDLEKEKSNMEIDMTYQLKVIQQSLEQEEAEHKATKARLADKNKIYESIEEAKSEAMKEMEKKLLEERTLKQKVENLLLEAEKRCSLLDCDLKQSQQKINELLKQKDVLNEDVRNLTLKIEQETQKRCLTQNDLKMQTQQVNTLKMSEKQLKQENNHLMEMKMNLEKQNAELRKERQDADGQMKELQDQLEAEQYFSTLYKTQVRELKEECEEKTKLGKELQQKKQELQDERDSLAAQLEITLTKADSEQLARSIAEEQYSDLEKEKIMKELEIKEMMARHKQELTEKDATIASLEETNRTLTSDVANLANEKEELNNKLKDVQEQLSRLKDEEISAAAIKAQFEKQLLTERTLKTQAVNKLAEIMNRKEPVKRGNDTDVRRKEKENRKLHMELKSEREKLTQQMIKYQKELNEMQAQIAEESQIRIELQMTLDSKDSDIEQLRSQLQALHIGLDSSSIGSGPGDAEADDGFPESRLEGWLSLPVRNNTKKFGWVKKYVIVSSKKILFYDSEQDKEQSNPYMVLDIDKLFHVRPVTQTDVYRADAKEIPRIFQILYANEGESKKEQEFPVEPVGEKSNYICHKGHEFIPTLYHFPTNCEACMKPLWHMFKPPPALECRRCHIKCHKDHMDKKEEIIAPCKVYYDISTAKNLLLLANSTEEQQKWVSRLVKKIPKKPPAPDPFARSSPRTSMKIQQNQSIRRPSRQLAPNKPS
Sequence of Calcium/calmodulin-dependent protein kinase type 1 (Homo sapiens) (Q14012 whole entry, looked up): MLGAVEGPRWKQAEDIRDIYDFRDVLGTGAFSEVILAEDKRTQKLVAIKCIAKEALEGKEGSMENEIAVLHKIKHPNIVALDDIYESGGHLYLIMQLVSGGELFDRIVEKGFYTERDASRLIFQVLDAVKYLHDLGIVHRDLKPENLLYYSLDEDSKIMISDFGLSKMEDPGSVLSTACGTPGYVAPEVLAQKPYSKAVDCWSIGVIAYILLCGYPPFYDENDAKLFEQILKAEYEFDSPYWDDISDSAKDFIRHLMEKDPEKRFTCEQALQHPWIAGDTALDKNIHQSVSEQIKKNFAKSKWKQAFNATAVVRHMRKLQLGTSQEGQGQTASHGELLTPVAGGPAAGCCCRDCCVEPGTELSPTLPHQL
Sequence of Serine/threonine-protein kinase PAK 4 (O96013 whole entry, looked up): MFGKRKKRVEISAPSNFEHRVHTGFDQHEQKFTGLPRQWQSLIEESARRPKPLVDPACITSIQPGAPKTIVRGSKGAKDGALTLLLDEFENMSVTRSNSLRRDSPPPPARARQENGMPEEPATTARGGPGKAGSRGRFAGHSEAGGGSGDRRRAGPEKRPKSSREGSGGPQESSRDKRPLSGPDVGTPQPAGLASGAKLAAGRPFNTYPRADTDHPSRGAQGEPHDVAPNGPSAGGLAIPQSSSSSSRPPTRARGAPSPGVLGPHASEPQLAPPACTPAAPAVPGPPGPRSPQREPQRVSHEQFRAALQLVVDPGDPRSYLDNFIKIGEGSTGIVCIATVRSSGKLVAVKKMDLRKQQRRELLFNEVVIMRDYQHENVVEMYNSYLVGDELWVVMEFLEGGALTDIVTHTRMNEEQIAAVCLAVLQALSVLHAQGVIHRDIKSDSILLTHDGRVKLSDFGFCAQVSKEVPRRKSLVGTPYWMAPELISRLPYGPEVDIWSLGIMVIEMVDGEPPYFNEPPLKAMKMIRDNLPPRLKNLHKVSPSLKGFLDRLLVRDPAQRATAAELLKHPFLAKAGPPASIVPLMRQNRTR
Sequence of Serine/threonine-protein kinase N2 (Homo sapiens) (Q16513 whole entry, looked up): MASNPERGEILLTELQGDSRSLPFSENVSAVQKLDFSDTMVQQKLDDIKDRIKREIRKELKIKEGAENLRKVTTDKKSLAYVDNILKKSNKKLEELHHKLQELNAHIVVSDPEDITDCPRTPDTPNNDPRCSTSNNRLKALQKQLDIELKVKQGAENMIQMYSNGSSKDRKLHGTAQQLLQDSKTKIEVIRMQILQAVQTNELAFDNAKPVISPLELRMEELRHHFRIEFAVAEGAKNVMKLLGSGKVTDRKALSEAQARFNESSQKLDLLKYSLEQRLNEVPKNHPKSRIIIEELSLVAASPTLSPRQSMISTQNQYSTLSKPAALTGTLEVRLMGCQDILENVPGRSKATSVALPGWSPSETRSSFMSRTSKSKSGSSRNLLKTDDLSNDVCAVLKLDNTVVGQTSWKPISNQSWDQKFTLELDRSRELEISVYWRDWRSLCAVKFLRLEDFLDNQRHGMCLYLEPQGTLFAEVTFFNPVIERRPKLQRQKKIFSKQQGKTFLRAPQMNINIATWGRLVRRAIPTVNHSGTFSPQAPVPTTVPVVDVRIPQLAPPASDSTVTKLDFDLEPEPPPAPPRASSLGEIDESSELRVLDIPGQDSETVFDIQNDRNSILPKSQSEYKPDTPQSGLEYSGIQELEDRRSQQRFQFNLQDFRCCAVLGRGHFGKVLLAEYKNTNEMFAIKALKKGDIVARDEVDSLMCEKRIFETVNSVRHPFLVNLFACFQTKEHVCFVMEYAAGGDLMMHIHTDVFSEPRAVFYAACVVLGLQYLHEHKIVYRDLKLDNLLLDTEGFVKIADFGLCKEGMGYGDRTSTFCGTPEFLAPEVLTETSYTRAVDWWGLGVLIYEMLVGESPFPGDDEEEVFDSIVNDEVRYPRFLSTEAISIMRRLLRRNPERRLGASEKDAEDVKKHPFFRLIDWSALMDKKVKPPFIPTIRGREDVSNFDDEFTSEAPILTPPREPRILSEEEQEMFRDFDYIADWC

SMILES | Activity [1] [%] | Activity [2] [%] | Activity [5] [%] | Activity ([7]; filed as antagonist) [%] | Activity [12] [%] | Activity [15] [%] | Activity [16] [%] | Activity [17] [%] | Activity [7] [%] | further results
O=C(NCCCNc1nc(Nc2cccc(NC(=O)N3CCCC3)c2)ncc1I)c1cccs1 | 95 | 91 | 86 | 48 | 71 | 111 | 90 | 108 |  | Activity [3]: 52%; Activity ([4]; filed as antagonist): 27%; Activity [6]: 96%; Activity [8]: 94%; Activity [9]: 85%; Activity [10]: 90%; Activity [11]: 79%; Activity [13]: 105%; Activity [14]: 91%
Cn1cc(C2=C(c3cn(CCCSC(=N)N)c4ccccc34)C(=O)NC2=O)c2ccccc21 |  |  |  | 39 | 91 |  |  |  |  | 
CC(C)CCN1c2nc(Nc3cc(F)c(O)c(F)c3)ncc2N(C)C(=O)C1C (stereo not drawn) |  |  |  |  | 103 |  |  |  | 112 | 
CN[C@@H]1C[C@H]2O[C@@](C)([C@@H]1OC)n1c3ccccc3c3c4c(c5c6ccccc6n2c5c31)C(=O)N[C@H]4O (stereo in doubt) | 76 | 94 | 86 |  |  | 99 | 76 | 73 |  | Activity ([3]; filed as antagonist): 9%; Activity [4]: 71%; Activity ([6]; filed as antagonist): 8%; Activity ([8]; filed as antagonist): 5%; Activity [9]: 84%; Activity [10]: 86%; Activity ([11]; filed as antagonist): 10%; Activity ([13]; filed as antagonist): 6%; Activity ([14]; filed as antagonist): 33%
CC(C)[C@H](CO)Nc1nc(Nc2cccc(Cl)c2)c2ncn(C(C)C)c2n1 [PURVALANOLA] |  |  |  |  | 99 |  |  |  | 82 | 
CN(C)C[C@@H]1CCn2cc(c3ccccc32)C2=C(C(=O)NC2=O)c2cn(c3ccccc23)CCO1 |  |  |  |  |  |  |  |  | 66 | 
Cc1n[nH]c2ccc(-c3cncc(OC[C@@H](N)Cc4c[nH]c5ccccc45)c3)cc12 | 89 | 86 | 89 |  | 77 | 86 | 91 | 59 | 53 | Activity [3]: 84%; Activity [4]: 100%; Activity [6]: 54%; Activity [8]: 86%; Activity ([9]; filed as antagonist): 41%; Activity ([10]; filed as antagonist): 48%; Activity ([11]; filed as antagonist): 17%; Activity [13]: 73%; Activity [14]: 99%
Cn1c2ccccc2c2c3c(c4c5ccccc5n(CCC#N)c4c21)CNC3=O |  |  |  | 44 | 98 |  |  |  |  | 
